Values of other authors as cited in patent US8377976B2, “N-hydroxyamidinoheterocycles as modulators of indoleamine 2,3-dioxygenase” (Incyte Corporation, priority 2006, dated 2013).

Assays:
[1] = tested on: peripheral blood lymphocytes (PBLs); conditions: HeLa cells co-cultured with PBLs
allogeneic concepti = conditions: pregnant mice exposed to 1MT
tumor growth = conditions: mice
[2] = tested on: CD123-positive dendritic cells; conditions: mature and immature CD123-positive dendritic cells
LLC tumors = conditions: C57B1/6 mice, versus placebo
P815 tumor = conditions: pre-immunized immune-competent mice

Cn1cc(C[C@H](N)C(=O)O)c2ccccc21 [Example 1-MT, 1-methyl-tryptophan]
reduction in PBL proliferation upon treatment with interleukin-2 (IL2) [1]: reversed | rejection of concepti (allogeneic concepti): rapid, T cell-induced rejection of all allogeneic concepti | tumor growth in combination with chemotherapeutic agents (tumor growth): synergize with chemotherapeutic agents to reduce tumor growth | IDO suppressive activity on T-cell activity [2]: blocked | formation of tumors (LLC tumors): markedly delayed | growth of tumors (P815 tumor): inhibited
